As a reminder, the GI50 is the concentration that inhibits growth by half. One may read the TGI as the concentration giving total growth inhibition.

Molecules are shown by their SMILES. “And” between values parts separate entries of the source, which are not always exact repeats. Identical values can stand only once.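 Each compound was tested at five concentrations against cells in 96-well plates for 48 hours. Abbreviation: GI50, concentration required for 50% inhibition of growth. TGI: concentration producing complete growth inhibition.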

Common to all, as to assay: DTP human tumour cell line panel, 48 h
The subject of assay [1] is A498 renal.
The test system of assay [2] is ACHN renal.
The subject of assay [3] is BT-549 breast.
For assay [4], the system named is COLO 205 colon.
Assay [5] concerns HOP-62 NSCLC.
In assay [6] the test system is OVCAR-3 ovarian.
Assay [7] deals with RPMI-8226 leukemia.
For assay [8], the system named is SF-295 CNS.
Assay [9] relates to SNB-75 CNS.
The subject of assay [10] is UACC-257 melanoma.

For the compound `O=C(Cc1ccc(-c2ccc(OCCN3CCOCC3)cc2)cn1)NCc1ccccc1`, the concentration for 50% growth inhibition (GI50) is 0.0247 µM and 0.0277 µM in [1]; 0.0857 µM and 0.0811 µM in [2]; 0.159 µM and 0.0767 µM in [3]; 0.0291 µM and 0.0361 µM in [4]; 0.0372 µM and 0.066 µM in assay [5]; 0.0352 µM in [6]. Also, the GI50 is 0.0427 µM and 0.0358 µM in assay [7]; 0.0296 µM and 0.0347 µM in assay [8]; 0.0333 µM and 0.0218 µM in assay [9]; 0.112 µM and 0.711 µM in [10]. Also, the concentration for total growth inhibition (TGI) was 0.331 µM and 0.0822 µM in assay [1]; > 100 µM in assay [2]; 0.0858 µM and 0.632 µM in assay [4]; > 88.4 µM in [5]; > 50.2 µM in [7]; > 100 µM in assay [8]. Also, the concentration for total growth inhibition (TGI) in [9] was > 100 µM; in assay [10] it was 94.9 µM and > 10 µM.
Turning to `COc1cc(-c2cn(-c3ccc(F)cc3)c(=O)[nH]2)cc(OC)c1OC`, the GI50 is > 100 µM in assay [1]; > 100 µM in assay [2]; > 100 µM in [3]; > 100 µM in assay [4]; 45 µM in assay [5]; > 100 µM in [6]. Also, the GI50 in [7] was > 100 µM; in assay [8] it was > 100 µM; in assay [9] it was 55.6 µM; in assay [10], > 100 µM. Moreover, the total growth inhibition concentration (TGI) in assay [1], in assay [2], in [3], in assay [4], in assay [5] and in [6] was > 100 µM each time. Also, the TGI in assay [7], in assay [8], in assay [9] and in [10] was > 100 µM throughout.
Turning to `O=C1Nc2cc(-c3ccc(O)cc3)ccc2/C1=C/c1ccc[nH]1`, the GI50 in assay [1] was 1.53 µM; in [2], 0.0504 µM; in assay [3], 0.396 µM; in assay [4], 2.78 µM; in assay [5], 0.559 µM; in [6], 0.348 µM. Besides, the GI50 is 0.486 µM in assay [7], 0.266 µM in assay [8], 2.08 µM in assay [9] and 0.743 µM in assay [10]. The TGI is 5.05 µM in assay [1]; 3.6 µM in assay [2]; 13.3 µM in [3]; 12.5 µM in assay [4]; > 100 µM in assay [5]; 3.99 µM in assay [6]. In addition, the TGI in assay [7] is > 20.3 µM; in [8], > 40.5 µM; in assay [9] it was 8.35 µM; in assay [10] it was > 100 µM.
On to `N#CC1=C(N)Oc2c(ccc3cccnc23)C1c1ccccc1` (stereo not given), for which the TGI in assay [1] is 16.9 µM; in assay [2], > 100 µM; in [3] it was 23.6 µM; in assay [4], 13.2 µM; in assay [5], > 22.9 µM; in assay [6], 2.95 µM. Besides, the total growth inhibition concentration (TGI) was 15.1 µM in assay [7], > 21.9 µM in assay [8], 3.5 µM in assay [9] and > 79.4 µM in assay [10]. Also, the GI50 in [3] is 1.73 µM; in assay [7] it was 2.37 µM.
Turning to `CCN(CC)CCC(CNc1c(C)cnc2cc(Cl)ccc12)c1ccc(Cl)c(Cl)c1` (stereo not given), the GI50 was 9.4 µM in [1]; 4.51 µM in assay [2]; 8.2 µM in assay [3]; 1.55 µM in assay [4]; 4.69 µM in [5]; 6.81 µM in assay [6]. For the same compound, the GI50 is 2.15 µM in assay [7], 1.67 µM in assay [8], 3.9 µM in [9] and 2.08 µM in assay [10]. Also, the TGI came out at 24.8 µM in [1]; 17.5 µM in assay [2]; 21.3 µM in assay [3]; 3.24 µM in assay [4]; 17.6 µM in [5]; 21.1 µM in assay [6]. The TGI in [7] is 6.49 µM; in assay [8] it was 3.75 µM; in assay [9], 18.7 µM; in [10], 3.93 µM.
Turning to `COc1ccc2cn3c4ccc(O)cc4[nH]c(=O)c3c2c1`, the 50% growth inhibitory concentration (GI50) is 0.404 µM in assay [1]; 0.0762 µM in assay [2]; 3.34 µM in assay [3]; 0.348 µM in [4]; 0.0864 µM in assay [5]; 0.0474 µM in assay [6]. Moreover, the GI50 is 0.308 µM in assay [7], 0.129 µM in [8], 0.162 µM in [9] and 8.08 µM in assay [10]. Besides, the TGI in assay [1] came out at 17 µM; in assay [2], 15.9 µM; in assay [3] it was 18.1 µM; in [4], 2.87 µM; in assay [5], 17.3 µM; in assay [6], 7.08 µM. For the same compound, the TGI in assay [7] worked out at 7.93 µM; in assay [8] it was 12.9 µM; in assay [9] it was 18.5 µM; in [10] it was 24.2 µM.
Regarding `COc1ccc(/C=N/C2=NNC(C)(c3ccccc3O)N2C(Cc2c[nH]c3ccccc23)C(=O)O)cc1` (stereo not given), the GI50 in assay [1] was 3.1 µM; in assay [2], 3.02 µM; in assay [3] it was 2.24 µM; in assay [4] it was 1.86 µM; in assay [5], 2.58 µM; in assay [6], 3.05 µM. Moreover, the GI50 in assay [7] was 2.14 µM; in assay [8], 2.12 µM; in assay [9], 1.72 µM; in assay [10], 3.53 µM. Moreover, the total growth inhibition concentration (TGI) in assay [1] worked out at 9.03 µM; in [2], 14.7 µM; in assay [3] it was 7.62 µM; in assay [4] it was 4.44 µM; in assay [5] it was 11.9 µM; in assay [6], 11.7 µM. Moreover, the TGI in [7] was found to be 7.65 µM; in assay [8], 7.35 µM; in [9], 13.4 µM; in assay [10] it was 10.8 µM.
`Nc1n[nH]c2cc(F)c([C@@H]3Nc4c(F)cc5[nH]ncc5c4[C@H]4C5CCC(C5)[C@@H]34)cc12` (stereo not given in full): the GI50 in assay [1] is 0.063 µM; in [2], 0.188 µM; in assay [3] it was 0.103 µM; in assay [4], 0.124 µM; in assay [5], 0.195 µM; in [6], 0.105 µM. Moreover, the 50% growth inhibitory concentration (GI50) in assay [7] was 0.145 µM; in assay [8] it was 0.0971 µM; in assay [9], 0.0894 µM; in assay [10], 5.16 µM. In addition, the TGI worked out at 0.212 µM in assay [1]; 11.1 µM in assay [2]; 1.37 µM in [3]; 1.03 µM in [4]; 6.46 µM in [5]; 3.73 µM in assay [6]. For the same compound, the concentration for total growth inhibition (TGI) in assay [7] came out at 5.22 µM; in [8], 3.82 µM; in assay [9], 0.635 µM; in assay [10], 23.3 µM.

The values are drawn from PubChem BioAssay (NCI).
